# Like-named read-outs stand apart in the source and are kept apart here.
# Columns and labels:
# [1] = molecular target: T1, S. aureus Uridine-diphosphate-N-acetvimuramoyl: L-alanine lipase, MurC (Staphylococcus aureus, UniProt Q2FXJ0); assay: biochemical; details: (S) S. aureus enzyme; read-out: MurC IC50 (converted)
# T1 sequence (Q2FXJ0 1-437): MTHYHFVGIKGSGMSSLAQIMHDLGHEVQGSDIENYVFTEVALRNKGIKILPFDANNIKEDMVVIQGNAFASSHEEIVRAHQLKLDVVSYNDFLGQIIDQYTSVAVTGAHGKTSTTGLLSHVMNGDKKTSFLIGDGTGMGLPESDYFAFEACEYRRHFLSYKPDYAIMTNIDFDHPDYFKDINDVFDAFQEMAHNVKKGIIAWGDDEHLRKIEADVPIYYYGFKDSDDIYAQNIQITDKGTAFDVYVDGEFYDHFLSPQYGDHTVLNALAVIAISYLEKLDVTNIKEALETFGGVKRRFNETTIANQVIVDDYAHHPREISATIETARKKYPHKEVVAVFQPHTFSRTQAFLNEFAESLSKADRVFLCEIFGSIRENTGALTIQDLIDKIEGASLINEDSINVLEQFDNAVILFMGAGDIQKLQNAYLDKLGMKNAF
# Description: S. aureus and E. coli Uridine-diphosphate-N-acetvimuramoyl: L-alanine lipase, MurC
# (§1) Preparation of Enzyme Solution:
# A 1 mg/mL stock solution of MurC is prepared in a buffer consisting of 20 mM Tris/HCl (pH 8.5) with 2.5 μM BME. The stock solution is further diluted with the buffer to give a final enzyme concentration of 100 μg/mL for the E. coli stock solution and 70 μg/mL for the S. aureus stock solution.
# (§2) Preparation of Test Compound Solutions:
# (§3) All test solutions are prepared in DMSO as 10 mg/mL, then diluted with 50 mM Tris/HCl (pH 8.5) to 100 μg/mL.
# (§4) Preparation of Stop Solution:
# The stop solution is prepared by stirring 1 part 4.2% ammonium molydbate in 4N HCl with 2 parts 0.045% malachite green for 30 min.
# In this evaluation, the inhibitory activity of a test compound against MurC, the enzyme which catalyzes the third step of bacterial cell wall bioxynthesis is determined. Experiments are performed by adding 2.5 μl buffer, 2.5 μl 0.5M NH4SO2, 5 μl 2 μM L-Ala, 5 μl enzyme solution and 6.5 μl test compound solution to each well in a 96-well microplate. After a pre-incubation period of 10 mins. at 23° C., 3.75 μl of a 0.75 μM solution of UDP-MurNac is added to each well. Following an incubation period of 10 mins. at 37° C., 210 μl stop solution and 50 μl of a 34% w/v sodium citrate solution are added and color is allowed to develop for 10 mins. at 23° C. (Lanzetta et al., Analytical Biochemistry, 1979, 95) Optical density readings are taken at 660 nm using a Molecular Devices Spectra Max 250 with Soft Max software. Controls are performed using the same procedure and omitting the addition of UDP-MurNac. […]
# Using these values the IC50 is determined by linear regression analysis.
# Streptococci = assay: Minimum inhibitory concentration, microdilution broth method, streptococci; format: cell-based; details: Mueller-Hinton broth with 5% horse blood, 18-22 hours at 35° C.; for MIC: S. pneumo GC 1894
# Method in brief: (§5)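 MIC by microdilution, NCCLS M7-A5. Media: MH broth (staph, enterococci); MH + 5% lysed horse blood (strep). Strains incl. methicillin-, penicillin- and/or vancomycin-resistant clinical isolates.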
# [2] = molecular target: T2, S. aureus UDP-N-acetylglucosamine enolpyruvoyl transferase, MurA (Staphylococcus aureus, UniProt P84058); assay: Inhibitory activity against MurA (S. aureus); format: biochemical; details: (S) S. aureus enzyme
# T2 sequence (P84058 1-421): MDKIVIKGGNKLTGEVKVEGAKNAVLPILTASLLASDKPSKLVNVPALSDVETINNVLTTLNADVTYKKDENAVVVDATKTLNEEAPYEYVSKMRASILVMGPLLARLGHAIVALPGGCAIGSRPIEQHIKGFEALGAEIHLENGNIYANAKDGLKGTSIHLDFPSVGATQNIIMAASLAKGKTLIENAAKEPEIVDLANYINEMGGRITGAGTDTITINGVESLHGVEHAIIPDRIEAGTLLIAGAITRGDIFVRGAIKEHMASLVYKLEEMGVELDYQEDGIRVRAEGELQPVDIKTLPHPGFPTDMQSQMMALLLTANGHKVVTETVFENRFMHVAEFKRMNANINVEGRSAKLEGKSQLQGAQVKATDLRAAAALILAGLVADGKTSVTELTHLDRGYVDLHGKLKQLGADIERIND
# Description: (§6) Evaluation of the Inhibitory Activity of Test Compounds Against Enzymes which Catalyze Bacterial Cell Wall Biosynthesis
# (§7) S. aureus and E. coli UDP-N-acetylglucosamine enolpyruvoyl transferase, MurA
# as §1
# (§8) The enzyme solution is prepared by admixing the following: 50 mM Tris/HCl pH 8.0, […] 1 M Tris, 5 mM DTT, […] 1 M DTT, 20% Glycerol 4 ml 50% Glycerol, add water to 10 ml.
# as §4
# The stop solution is prepared by mixing the following: 4.2% ammonium molybdate in 4N HCl, 8.4 g/200 ml 4N HCl, 0.045% malachite green, 90 mg/200 ml water, then stir 1 part ammonium molybdate with 2 parts malachite green for 30 min.
# A procedure similar to that described by C. T. Walsh in Biochemistry 33, 10646-10651, is used to evaluate the inhibitory activity of test compounds against MurA, the enzyme which catalyzes the first step of bacterial cell wall biosynthesis. Experiments are performed by adding a solution of test compound (in a mixture of dimethylsulfoxide and water) and an enzyme solution to a well. After a pre-incubation period of 10 mintues at 37° C., Tris/BME buffer and assay buffer are added. A start point optical density (OD0) reading is taken at 340 nm immediately following the addition of assay buffer. After incubation for 1 hr at 37° C., the stop solution is added and the color is allowed to develop for 30 minutes. An end point OD1 reading at […] is then taken. […]
# enterococci = assay: Minimum inhibitory concentration, microdilution broth method, enterococci; format: cell-based; details: Mueller-Hinton broth, 18-22 hours at 35° C.; for MIC: Enterococcus faecalis
# Method in brief: as §5
# staphylococci = assay: Minimum inhibitory concentration, microdilution broth method, staphylococci; format: cell-based; details: Mueller-Hinton broth, 18-22 hours at 35° C.; for MIC: Staphylococcus aureus
# Method in brief: as §5
# [3] = molecular target: T3, S. aureus Uridine-diphosphate-N-acetylmuramoyl-L-alanine: D-glutamate liease, MurD (Staphylococcus aureus, UniProt Q2FZ92); assay: biochemical; details: (S) S. aureus enzyme
# T3 sequence (Q2FZ92 1-449): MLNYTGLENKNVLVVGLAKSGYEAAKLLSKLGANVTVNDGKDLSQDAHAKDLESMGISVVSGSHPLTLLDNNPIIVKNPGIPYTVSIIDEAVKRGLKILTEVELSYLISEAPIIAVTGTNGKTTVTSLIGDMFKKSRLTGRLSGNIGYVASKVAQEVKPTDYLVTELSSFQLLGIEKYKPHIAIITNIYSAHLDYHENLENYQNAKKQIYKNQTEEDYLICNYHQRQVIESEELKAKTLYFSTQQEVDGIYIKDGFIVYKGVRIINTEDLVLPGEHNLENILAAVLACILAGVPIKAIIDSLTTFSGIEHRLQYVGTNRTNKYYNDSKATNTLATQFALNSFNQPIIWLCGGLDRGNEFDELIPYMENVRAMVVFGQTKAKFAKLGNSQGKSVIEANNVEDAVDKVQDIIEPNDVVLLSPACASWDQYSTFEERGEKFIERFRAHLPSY
# Description: S. aureus and E. coli Uridine-diphosphate-N-acetylmuramoyl-L-alanine: D-glutamate liease, MurD
# as §1, §2, §3, §4
# In this evaluation, the inhibitory activity of a test compound against MurD, the enzyme which catalyzes the fourth step of bacterial cell wall biosynthesis is determined.
# [4] = molecular target: E. coli UDP-N-acetylglucosamine enolpyruvoyl transferase, MurA (Escherichia coli, UniProt P0A749); assay: biochemical; details: (E) E. coli enzyme
# Description: as §6, §7, §1, §8, §4
# A procedure similar to that described by C. […] Experiments are performed by adding a solution of test compound (in a mixture of dimethylsulfoxide and water) and an enzyme solution to a well. After a pre-incubation period of 10 mintues at 37° C., Tris/BME buffer and assay buffer are added. A start point optical density (OD0) reading is taken at 340 nm immediately following the addition of assay buffer. After incubation for 1 hr at 37° C., the stop solution is added and the color is allowed to develop for 30 minutes.
# [5] = molecular target: E. coli Enopyruvyl-UPD-N-acetylglucosamine reductase, Mur B (Escherichia coli, UniProt P08373); assay: biochemical; details: (E) E. coli enzyme; for IC50: read-out: MurB IC50 (converted)
# [6] = molecular target: E. coli Uridine-diphosphate-N-acetylmuramoyl-L-alanine: D-glutamate liease, MurD (Escherichia coli, UniProt P14900); assay: biochemical; details: (E) E. coli enzyme
# Method in brief: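 Compound working solutions reach 100 μg/mL in 50 mM Tris/HCl (pH 8.5) after dilution of 10 mg/mL DMSO stocks; final level in the well not given here. Reaction buffer finals: 2 mM ATP, 50 mM MgCl2, 83 mM Tris/HCl, pH 8.0.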
# [7] = molecular target: E. coli Uridine-diphosphate-N-acetvimuramoyl: L-alanine lipase, MurC (Escherichia coli, UniProt P17952); assay: Inhibitory activity against MurC (E. coli); format: biochemical; details: (E) E. coli enzyme; for IC50: read-out: MurC IC50 (converted)
# [8] = molecular target: T4, S. aureus Enopyruvyl-UPD-N-acetylglucosamine reductase, Mur B (Staphylococcus aureus, UniProt P61431); assay: biochemical; details: (S) S. aureus enzyme; read-out: MurB IC50 (converted)
# T4 sequence (P61431 1-307): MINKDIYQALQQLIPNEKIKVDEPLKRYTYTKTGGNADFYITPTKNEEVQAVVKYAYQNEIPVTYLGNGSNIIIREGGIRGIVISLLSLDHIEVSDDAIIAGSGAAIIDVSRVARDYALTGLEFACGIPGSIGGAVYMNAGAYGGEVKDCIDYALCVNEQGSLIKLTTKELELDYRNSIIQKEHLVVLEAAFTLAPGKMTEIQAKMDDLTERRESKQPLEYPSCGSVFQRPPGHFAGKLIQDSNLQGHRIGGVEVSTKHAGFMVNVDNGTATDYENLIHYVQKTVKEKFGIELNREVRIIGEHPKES
# [9] = E. faecalis GC 2242, read-out: MIC E. faecalis GC 2242
# [10] = E. faecalis GC 4555, read-out: MIC E. faecalis GC 4555
# [11] = S. aureus GC 1131, read-out: MIC S. aureus GC 1131
# [12] = S. aureus GC 4543, read-out: MIC S. aureus GC 4543
# E. coli Enopyruvyl-UPD-N-acetylglucosamine reductase, Mur B, sequence (P08373 whole entry): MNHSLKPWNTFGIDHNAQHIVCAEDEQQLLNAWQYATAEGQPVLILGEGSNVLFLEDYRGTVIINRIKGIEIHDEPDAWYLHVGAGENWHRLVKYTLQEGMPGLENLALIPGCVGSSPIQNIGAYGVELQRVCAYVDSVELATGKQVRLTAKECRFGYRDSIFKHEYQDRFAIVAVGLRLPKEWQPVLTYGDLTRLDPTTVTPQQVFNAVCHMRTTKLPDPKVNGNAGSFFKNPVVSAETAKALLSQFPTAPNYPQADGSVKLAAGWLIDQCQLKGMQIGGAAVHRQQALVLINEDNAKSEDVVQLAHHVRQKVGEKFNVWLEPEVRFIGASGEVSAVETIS
# E. coli Uridine-diphosphate-N-acetvimuramoyl: L-alanine lipase, MurC, sequence (P17952 whole entry): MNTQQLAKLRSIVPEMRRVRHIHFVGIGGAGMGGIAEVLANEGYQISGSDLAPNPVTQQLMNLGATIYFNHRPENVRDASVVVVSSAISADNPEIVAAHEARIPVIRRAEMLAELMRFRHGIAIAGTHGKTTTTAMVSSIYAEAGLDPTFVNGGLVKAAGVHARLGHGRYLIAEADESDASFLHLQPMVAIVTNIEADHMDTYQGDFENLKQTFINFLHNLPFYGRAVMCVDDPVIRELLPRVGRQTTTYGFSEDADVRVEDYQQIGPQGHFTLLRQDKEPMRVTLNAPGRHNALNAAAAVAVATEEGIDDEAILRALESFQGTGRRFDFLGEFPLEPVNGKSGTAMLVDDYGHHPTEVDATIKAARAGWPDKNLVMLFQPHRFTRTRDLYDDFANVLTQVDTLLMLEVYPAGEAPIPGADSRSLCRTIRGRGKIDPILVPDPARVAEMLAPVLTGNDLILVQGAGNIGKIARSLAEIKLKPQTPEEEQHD
# E. coli UDP-N-acetylglucosamine enolpyruvoyl transferase, MurA, sequence (P0A749 whole entry): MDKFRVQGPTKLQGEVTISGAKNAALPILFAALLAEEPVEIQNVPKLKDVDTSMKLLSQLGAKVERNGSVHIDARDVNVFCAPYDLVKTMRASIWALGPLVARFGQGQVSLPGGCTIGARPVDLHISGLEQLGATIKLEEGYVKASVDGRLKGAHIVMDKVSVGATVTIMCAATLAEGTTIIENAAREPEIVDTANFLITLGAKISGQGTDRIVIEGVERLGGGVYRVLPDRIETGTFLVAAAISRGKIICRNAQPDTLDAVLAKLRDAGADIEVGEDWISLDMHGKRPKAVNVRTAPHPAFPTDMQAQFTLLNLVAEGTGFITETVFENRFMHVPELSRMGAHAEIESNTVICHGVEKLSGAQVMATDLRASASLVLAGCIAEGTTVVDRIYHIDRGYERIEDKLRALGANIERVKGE
# E. coli Uridine-diphosphate-N-acetylmuramoyl-L-alanine: D-glutamate liease, MurD, sequence (P14900 whole entry): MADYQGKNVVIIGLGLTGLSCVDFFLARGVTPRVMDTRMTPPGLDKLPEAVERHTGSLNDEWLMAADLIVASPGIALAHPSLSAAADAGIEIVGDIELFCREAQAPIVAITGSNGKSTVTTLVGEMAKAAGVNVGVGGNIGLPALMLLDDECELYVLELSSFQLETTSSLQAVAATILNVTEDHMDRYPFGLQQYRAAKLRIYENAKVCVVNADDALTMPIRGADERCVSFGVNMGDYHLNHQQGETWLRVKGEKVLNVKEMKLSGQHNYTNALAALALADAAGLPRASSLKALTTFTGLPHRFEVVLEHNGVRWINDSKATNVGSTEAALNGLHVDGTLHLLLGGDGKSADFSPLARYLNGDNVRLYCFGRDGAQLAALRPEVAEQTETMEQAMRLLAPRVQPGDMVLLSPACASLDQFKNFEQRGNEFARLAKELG
smiles,measurement,setting,value
CC(=O)c1ccccc1-c1ccc(/C=C2\OC(=O)C(c3cc(Cl)cc(Cl)c3)=C2O)cc1C [Example 40],IC50,[1],8.6 µM
same,MIC,Streptococci,< 0.125 µg/mL
same,IC50,[2],30.1 µM
same,MIC,enterococci; [9],2 µg/mL
same,MIC,enterococci; [10],2 µg/mL
same,MIC,staphylococci; [11],1 µg/mL
same,MIC,staphylococci; [12],1 µg/mL
same,IC50,[3],15 µM
O=C1O/C(=C\c2ccc(-c3ccccc3C(F)(F)F)cc2)C(O)=C1c1ccccc1C(F)(F)F [Example 61],IC50,[4],> 52.5 µM
same,IC50,[5],> 52.5 µM
same,IC50,[6],> 52.5 µM
same,IC50,[7],29.4 µM
same,MIC,Streptococci,8 µg/mL
same,MIC,enterococci; [9],16 µg/mL
same,MIC,enterococci; [10],32 µg/mL
same,MIC,staphylococci; [11],16 µg/mL
same,MIC,staphylococci; [12],16 µg/mL
same,IC50,[3],39.9 µM
O=C1O/C(=C\c2cccc(-c3ccc(Cl)c(Cl)c3)c2)C(O)=C1c1ccc(Cl)c(Cl)c1 [Example 135],IC50,[4],4.18 µM
same,IC50,[8],6.27 µM
same,IC50,[5],6.27 µM
same,IC50,[7],12.5 µM
same,MIC,Streptococci,1 µg/mL
same,MIC,enterococci; [9],4 µg/mL
same,MIC,enterococci; [10],4 µg/mL
same,MIC,staphylococci; [11],32 µg/mL
same,MIC,staphylococci; [12],1 µg/mL
same,IC50,[3],12.5 µM
"N#Cc1ccc(C2=C(O)/C(=C/c3ccc(-c4ccc(C#N)cc4)cc3)OC2=O)cc1 [R=H, R1=4-CN—C6H4, R2=4-(4′-CN-biphenyl)]",MurA IC50,[4],7 (E) μg/mL
same,MurB IC50,[5],15 (E) μg/mL
same,MurD IC50,[6],5 µg/mL
same,MurC IC50,[7],5 (E) μg/mL
same,MIC S. pneumo GC 1894,Streptococci,64 µg/mL
same,MIC E. faecalis GC 2242,enterococci; E. faecalis GC 2242,32 µg/mL
same,MIC E. faecalis GC 4555,enterococci; E. faecalis GC 4555,64 µg/mL
same,MIC S. aureus GC 1131,staphylococci; S. aureus GC 1131,>128 µg/mL
same,MIC S. aureus GC 4543,staphylococci; S. aureus GC 4543,>128 µg/mL
same,MurD IC50,[3],> 25 µg/mL
